Assay results reported in patent US20070202079A1, “Therapeutic compositions and methods useful in modulating protein tyrosine phosphatases” (priority 2006, published 2007).
Read-outs that look alike come from different tables or passages of the source.

Assays:
[1] = target: T1, PRL-3 (Homo sapiens, UniProt O75365); assay: in vitro PTPase assay, recombinant PRL-3; assay type: biochemical; conditions: for remaining PRL-3 PTPase activity: 0.1-100 μg/ml
T1 construct: cDNAs of human PRL-1, PRL-2 and PRL-3 coding region were derived by RT-PCR; made in house; host or cells: DH5a bacteria (E. coli)
Source text: Sodium stibogluconate, suramin, sodium orthovanadate and GST fusion protein of SHP-1 have been described previously (Pathak et al., J. Immunol. 167, 3391 (2001)). Meglumine antimonate was obtained from Aventis. cDNAs of human PRL-1, PRL-2 and PRL-3 coding region were derived by RT-PCR from H9 cells (Safai, et al., Lancet 1, 1438 (1984)) and inserted in frame into the pGEX vector. cDNA of PRL-1R86 was generated by recombinant DNA technique using PRL-1 cDNA as template following established procedures (Jiao, et al., Mol. Cell. Biol. 16, 6985 (1996)). GST fusion proteins of the PRL phosphatases were prepared from DH5a bacteria transformed with the pGEX fusion protein constructs as described previously (Yi, et al., Mol. Cell. Biol. 12, 836 (1992)). cDNAs encoding the PRLs tagged at the N-termini with the Flag epitope (Castrucci, et al., J. Virol. 66, 4647 (1992)) were generated via recombinant DNA technique, sequenced to confirm their identities and cloned into the pBabepuro vector (Yang, et al., Blood 91, 3746 (1998)). Anti-Flag monoclonal antibody (M2, Sigma) was purchased from a commercial source. A synthetic phosphotyrosine peptide (Arg-Arg-Leu-Ile-Glu-Asp-Ala-Gle-Tyr-Al- -a-Ala-Arg-Gly (SEQ ID NO: 3), wherein the tyrosine is phosphorylated; UBI) and DiFMUP (6, 8-difluoro-4-methylumbelliferyl phosphate, Molecular Probes) were purchased as substrates for PTPase assays.
In vitro PTPase assays were used to determine the effects of compounds on recombinant PTPases, following established procedures using a synthetic phosphotyrosine peptide or DiFMUP as the substrate (Pathak et al., J. Immunol. 167, 3391 (2001)). Briefly, individual PTPases (0.1 μg/reaction) in 50 μL of PTPase buffer (50 mM Tris, pH 7.4) were incubated at 22° C. for 10 minutes or as indicated in the absence or presence of inhibitory compounds. Substrates (0.2 mM phosphotyrosine peptide) were then added and allowed to react at 22° C. for 18 hrs. PTPase activity of individual reactions was measured by adding 100 μL of malachite green solution (UBI) and then quantifying the amounts of free phosphate cleaved by the PTPase from the peptide substrate by spectrometry (OD660 nm). PTPase assays using DiFMUP as a substrate were conducted following a previously described procedure (Matter, et al., Biochem. Biophys. Res. Comm. 283, 1061 (2001)). Relative PTPase activities were calculated based on the formula: (PTPase activity in the presence of an inhibitory compound/PTPase activity in the absence of the compound)× 100%. To assess the reversibility of PTPase inhibition, GST fusion proteins of the PTPases bound on glutathione beads (Pharmacia) were pre-incubated with cold Tris buffer (50 mM Tris, pH 7.0) or Tris buffer containing the inhibitor at 4° C. for 30 minutes. The beads were then washed three times in cold Tris buffer or not washed prior to subjecting to in vitro PTPase assays.

[2] = target: T2, MKP1 (Homo sapiens, UniProt P28562); assay: in vitro PTPase assay, GST/MKP1; assay type: biochemical; conditions: for inhibition of MKP1: levamisole, pentamidine, ketoconazole
T2 construct: a pGEX construct containing the coding region of MKP1 cDNA derived by RT-PCR; made in house; host or cells: DH5a bacteria (E. coli)
T2 sequence (P28562 1-367): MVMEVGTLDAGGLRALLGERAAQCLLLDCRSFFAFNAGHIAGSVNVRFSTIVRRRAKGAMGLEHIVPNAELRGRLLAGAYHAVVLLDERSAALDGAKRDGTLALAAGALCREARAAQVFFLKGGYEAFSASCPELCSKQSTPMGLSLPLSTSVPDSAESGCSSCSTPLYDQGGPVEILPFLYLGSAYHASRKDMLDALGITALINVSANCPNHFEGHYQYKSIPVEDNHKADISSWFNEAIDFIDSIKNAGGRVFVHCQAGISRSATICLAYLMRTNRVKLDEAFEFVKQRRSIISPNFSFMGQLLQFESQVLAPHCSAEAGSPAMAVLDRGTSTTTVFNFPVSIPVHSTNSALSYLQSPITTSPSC
Description: In vitro PTPase activities were measured using the commercial protein tyrosine phosphatase assay kit (Upstate Biotechnology, Inc. (“UBI”)) following established procedure known to one of skill in the art. This assay measures the in vitro dephosphorylation of a synthetic phosphotyrosine peptide of the sequence Arg-Arg-Leu-Ile-Glu-Asp-Ala-Gle-T- -yr-Ala-Ala-Arg-Gly, wherein the tyrosine is phosphorylated (SEQ ID NO: 3). Briefly, 0.01 μg of GST/PTPase fusion proteins was incubated in 50 μl of Tris buffer (10 mM Tris, pH 7.4) containing different concentrations of inhibitors or chemicals (0-1,000 μg/ml) at 22° C. for 10 minutes, followed by addition of 0.2 mM of the phosphotyrosine peptide and incubation at 22° C. for 18 hours. 100 μl of Malachite Green solution was added and incubated for 5 minutes, and the absorbance at 660 nm was measured after 5 minutes.
In vitro PTPase assays were used to determine the effects of levamisole (Sigma), pentamidine (American Pharmaceutical Partners, Inc.), and ketoconazole (Sigma) on recombinant PTPases, following established procedures (Pathak et al., J. Immunol. 167, 3391 (2001); Pathak et al., Leukemia 16, 2285 (2002), Yi et al., J. Immunol. 169, 5978 (2002)) using a synthetic phosphotyrosine peptide or DiFMUP as the substrate as detailed above in section I.A.2.

T1 sequence (O75365 whole entry): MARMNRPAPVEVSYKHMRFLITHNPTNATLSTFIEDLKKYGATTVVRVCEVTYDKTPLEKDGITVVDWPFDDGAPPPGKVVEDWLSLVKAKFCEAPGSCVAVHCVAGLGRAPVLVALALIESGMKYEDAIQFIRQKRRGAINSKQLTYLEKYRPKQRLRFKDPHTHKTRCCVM

Compound	remaining PRL-3 PTPase activity [1]	inhibition of MKP1 [2]	inhibition of PRL-3 after washing [1]	inactivation of PRL-3 with prolonged pre-incubation ([1]; 10 μg/ml, pre-incubation 30 or 60 minutes)	inhibitory activity against MKP1 [2]	inhibitory activity against MKP1 ([2]; listed as SS)
N=C(N)c1ccc(OCCCCCOc2ccc(C(=N)N)cc2)cc1 [pentamidine]	20-30%	substantial inhibition				
O.O.O.O.O.O.O.O.O.O=C([O-])[C@@H]1[O][Sb]2([O-])([O][Sb]34([OH])[O][C@H]([C@H](O)CO)[C@H]([O]3)[C@H](C(=O)[O-])[O]4)[O][C@H]([C@H](O)CO)[C@@H]1[O]2.[Na+].[Na+].[Na+] [sodium stibogluconate]			not relieved by a washing process	nearly complete inactivation	no obvious inhibitory activity	no obvious effects
CC(=O)N1CCN(c2ccc(OCC3COC(Cn4ccnc4)(c4ccc(Cl)cc4Cl)O3)cc2)CC1 (centres unmarked) [ketoconazole]	25-40%	substantial inhibition				
